Tested on: CD39 gene expression
Assay: CD39 expression promoting effect in human Langerhans cell-like cells (THP-1) under dexamethasone stress, RT-PCR
Format: cell-based
Settings: THP-1 cells, 10 nM dexamethasone added, versus dexamethasone non-addition group
Method: THP-1 cells (American Type Culture Collection, VA, USA) were used as a substitute for human Langerhans cells. Approximately 200,000 THP-1 cells were cultured to confluence in RPMI1640 medium containing 10% FBS. Following culturing, stress hormone in the form of 10 nM dexamethasone was added followed by the respective addition of 0.1% polyoxyethylene (POE) 14/polyoxypropylene (POP) 7 random copolymer dimethyl ether (A), 0.01% of a 2% aqueous solution of sodium carboxymethyl-beta glucan (CM-Glucan, Mibelle Biochemistry) (B) and 0.1% rosewater (Bulgaria Rose Water, Toyotama International) (C). Moreover, a three-type mixture group (ABC) was added that incorporated one-third each of all three components. After culturing for 24 hours after addition, RNA was extracted using Isogen (Wako Pure Chemical Industries) followed by synthesis of cDNA using Superscript III and random primers (Invitrogen). RT-PCR was carried out with the Prism 7900HT (ABI) using SYBR Green (Invitrogen) and the primers indicated below.
During this RT-PCR, ribosomal protein S9 was used as normalization factor.

Q: With C[C@@H]1C[C@H]2[C@@H]3CCC4=CC(=O)C=C[C@]4(C)[C@@]3(F)[C@@H](O)C[C@]2(C)[C@@]1(O)C(=O)CO [dexamethasone] as the molecule, how does the “CD39 gene expression level (RT-PCR, normalized to ribosomal protein S9)” value read?
A: expression of CD39 decreased
